# Assay results: patent US20230143352A1 (Humanetics Corporation, priority 2020, published 2023)
# Experiments:
# [1] = test system: radiation-induced fibrosis; details: rat RiED model; treatment starting two hours after radiation exposure; cited from earlier work
# [2] = test system: normal lung tissue (WTLI-irradiated); assay: A549 mouse xenograft model with WTLI: radioprotection of normal lung tissue; format: in vivo, athymic CD1 nu/nu mice; details: A549 xenograft mice
# Description: FIG. 2A is an image of a mouse in which A549 cells were implanted subcutaneously, followed by treatment with 12.5 Gy of radiotherapy (RT). […] The white box indicates the path of radiation, and the circle indicates the tumor site.
# Other nonclinical studies focused on protection of the lungs in the context of cancer radiotherapy. A549 lung cancer cells were implanted subcutaneously in athymic CD1 nu/nu mice. The location of the implant was specific, so that a single dose of WTLI would hit the tumor and the normal lung tissue (FIG. 2A). Mice were then administered a nanoparticulate genistein suspension or vehicle control by daily oral gavage for seven days prior to WTLI and continuing until the end of the study.
# [3] = test system: NF-κB, pro-inflammatory cytokines, pro-fibrotic proteins; details: cited from earlier work
# [4] = test system: therapy-induced pneumonitis and pulmonary fibrosis; assay: Genistein phase 1b/2a trial in NSCLC patients on chemoradiotherapy: toxicity and adverse events; format: in vivo, human
# Experimental: FIGS. 3A and 3B are graphs plotting pulmonary adverse event incidence rates in non-small cell lung cancer (NSCLC) clinical trials.
# The drug was added to patients' chemoradiotherapy regimens to reduce the incidence of therapy-induced pneumonitis and pulmonary fibrosis. […] Patients ingested the suspension once daily for one week prior to chemoradiotherapy, and also while on concurrent chemoradiotherapy for a total of six to eight weeks.
# [5] = several pharmaceutically acceptable solvents; cited from earlier work
# SARS-CoV-2 = assay: K18-hACE2 transgenic mouse model of SARS-CoV-2 infection; format: in vivo
# [6] = test system: radiation-induced edema and fibrosis in the lung; assay: Mouse model of DEARE-lung: whole thoracic lung irradiation (WTLI) followed by oral genistein suspension; format: in vivo; details: WTLI mice
# Experimental: FIG. 1A includes representative images of animal lungs stained with Masson's Trichrome. Images on the left are whole-lung, and images on the right are high magnification (10×). […] Error bars ±SEM.
# Animals were treated for two, four, or six weeks.
# [7] = daily oral gavage from 7 days before WTLI to end of study
# [8] = K18-hACE2 Mouse Study 2, oral BID 7 d
smiles,measurement,setting,value
"O=c1c(-c2ccc(O)cc2)coc2cc(O)cc(O)c12 [genistein, 5,7-dihydroxy-3-(4-hydroxyphenyl)-4H-chromen-4-one]",fibrosis,[1],significantly reduced fibrosis
same,wet lung weight (indicator of pneumonitis),"[2]; WTLI, vs vehicle",reduced wet lung weight
same,"congestion and cellular infiltrate, H&E",[2]; [7],reduced congestion and minimal cellular infiltrate
same,"normal lung tissue remodeling (thickening of the septal wall), H&E",[2]; [7],marked reduction in normal lung tissue remodeling
same,"expression of NF-κB, pro-inflammatory cytokines (IL-1, IL-6, TNFα) and pro-fibrotic proteins (TGFβ, MMP-2, MMP-9, LDH)",[3],reduce expression
same,patients who developed pulmonary fibrosis,"[4]; 21 NSCLC patients treated, to date, 9% in historical study",none
same,occurrences of pulmonary fibrosis one year later,"[4]; NSCLC patients, one year later",no occurrences of pulmonary fibrosis
same,severity of dyspnea,"[4]; NSCLC patients, vs historical trial",less severe
same,solubility,[5],low to virtually no solubility
same,lung pathology,SARS-CoV-2; [8],improved lung pathology
same,pro-inflammatory cytokine expression,SARS-CoV-2; [8],reduced pro-inflammatory cytokine expression
same,survival,"SARS-CoV-2; mouse, in vivo, po",increase in survival
same,"immune infiltrate, edema and fibrosis of the lungs (histopathology and wet lung weight)","[6]; daily from 24 hours after irradiation for two, four or six weeks, vs controls","significantly less immune infiltrate, edema, and fibrosis of the lungs"
same,"levels of fibrosis (Masson's Trichrome staining, Ashcroft scoring)","[6]; treatment started 24, 72 or 120 hours (within five days) after radiation",reduction in pulmonary fibrosis
